Where two headings read alike, the source gives them in different places.
Columns and labels:
[1] = tested on: primary embryonic hippocampal cultures; assay: VitE complementation (vitE depletion) test on primary neuronal cultures; type: cell-based, rats; settings: for rescue of survival of vitE depleted cultures: 10^-7 M and 10^-6 M
Description: Primary embryonic hippocampal cultures were prepared essentially as described previously (Pauwels et al., Van Aschouw, H. P., Peeters, L., Moeremans, M., Leysen, J. E. (1992) Chronic treatment with sabeluzole protects cultured rat brain neurons from the neurotoxic effects of excitatory amino acids. Synapse, 12:271-280). Hippocampal formations of rats at embryonic day 17 were dissected and dissociated in 0.05% trypsin, 0.1 mg/ml DNase I in DMEM (Dulbecco Modified Eagle Medium). Heat-inactivated horse serum (HS) was added to a concentration of 4%, and the cells were centrifuged, washed with DMEM, and resuspended in DMEM/Ham's F12 (3:1) containing 10% HS. The cells were plated at a density of 4×10^5 cells/cm^2 in poly L-lysine (0.001%) precoated multiwell-24 plates. On day 1 in culture, the medium was changed to chemically defined CDM-R12 medium (DMEM-HEPES/Ham's F12 (3:1) containing 0.26% bovine serum albumin, 30 nM sodium selenite, 3 nM 3,3',5 triiodo-L-thyronine, 0.35 μM retinol, 0.3 μM retinol acetate, 2.3 μM DL-a-tocopherol, 2.1 μM DL-a-tocopherol acetate, 3.6 μM linolenic acid, 3.6 μM linoleic acid, 0.125% human transferrin, […], 57.7 nM corticosterone, 49 U/I insulin, 0.4 μM biotin, 10 μM L-carnitine, 83 μM D(+)-galactose, 3.3 μM glutathione, 10 μM ethanolamine, 0.1 mM putrescine; Romijn, H. J., van Huizen, F., Wolters, P. S. (1984) Towards an improved serum-free, chemically defined medium for long-term culturing of cerebral cortex tissue. Neurosci. Behav. Rev., 8:301-334). Acute and prolonged pretreatment of the, cultures was essentially as described previously (Pauwels et al., 1992). Drugs were dissolved, and diluted in 10% or 1% hydroxypropyl-β-cyclodextrin such that the final concentrations of the solvent in the acute and chronic exposures were 0.1% and 0.01% respectively. Compound A as used in the following examples is [(RRSR)+(RRRS)+(SSSR) +(SSRS)]-α-[[[2-(chroman-2-yl)-2-hydroxy-ethyl]amino]methyl]-6-hydroxy-2-chromanmethanol ethanedioate (1:1).
For vitE depletion experiments, primary cultures were set up as above, but on day 1 in culture, the medium was changed to chemically defined CDM-R12 medium with (control) or without DL-a-tocopherol (vitE) and DL-a-tocopherol acetate, in the presence or absence of test coumpound. […] Addition of compounds could rescue the cultures. […] The EC50 for complementation of vitE refers to the concentration of the compound required to restore culture survival to 50% of the survival seen for the culture grown in vitE supplemented medium. Seven concentrations of each compound were tested in triplicate, the number of independent experiments is indicated in the table, and the mean EC50 -value±SD was calculated.
Primary neuronal cultures depend on the presence of the antioxidant vitE in the culture medium for survival in vitro. When vitE depleted medium is used to grow the cultures, survival drops to ±20% of control. Compounds with antioxidative properties are able to complement the lack of vitE, and as such can when added to the culture medium, rescue vitE devoid cultures. Several nebivolol derivatives were tested at 10^-7 M and 10^-6 M in the vitE depletion test on primary neuronal cultures.
When nebivolol derivatives were administered during culture, the cultures could be rescued to a certain extent. 100% vitE complementation refers to the survival of a cell culture which is indifferent from a vitE containing cell culture.
When hydroxynebivolol was administered during culture, the cultures could be rescued. The EC50 refers to the concentration at which the culture is rescued for 50%, as measured by cytoplasmic LDH activity.

C6 glioma cells [2] = assay: GSH content in C6 glioma cultures after glutamate; type: cell-based; settings: for intracellular glutathione levels: 10 mM glutamate, 6 hr or more; for GSH content: glutamate 10 mM, without or with compound 1 μM
From the text: (§1) Competitive inhibition by glutamate of cystine uptake in certain cells leads to glutathione depletion and oxidative stress. This oxidative stress model has been described for glial C6 glioma cells (Kato et al., 1992. A mechanism for glutamate toxicity in the C6 glioma cells involving inhibition of cystine uptake leading to glutathione depletion. Neurosci. 48:903-914) and for the neuronal cell line N18RE105 (Murphy et al., 1989. Glutamate toxicity in a neuronal cell line involves inhibition of cystine transport leading to oxidative stress. Neuron 2:1547-1558).
(§2) Cell culture: The C6 glioma cell line (American Type Culture Collection, CCL 107) was cultivated in DMEM supplemented with 2 or 4 mM glutamine, 1 mM pyruvate and 5 or 10% heat-inactivated foetal calf serum. Cultures were maintained at 37° C. in an air/5~10% CO2, water saturated atmosphere.
(§3) Glutathione depletion and evaluation of drugs as antioxidants: Experiments were carried out with cultures plated at 30,000~50,000 cells/cm^2 in 24-well culture plates (for toxicity and lipid peroxide measurements) or at 136,000 cells/cm^2 in 96-well culture plates (for GSH determination). After 8-24 hr, the cultures were switched to culture medium in the absence or presence of the cystine uptake inhibitor glutamate at a final concentration of 10 mM. In order to test drugs for inhibition of oxidative stress, the drug was added together with glutamate (final concentration of solvent was 0.01% hydroxypropyl-β-cylodextrin, 0.1% DMSO). Intracellular glutathione levels were measured after 6~8 hr, lipid peroxides were measured after 14~20 hr, and toxicity and protection were analysed after 48 hr using an LDH assay according to the method of Bergmeyer and Bernt (UV-assay with pyruvate and NADH. In: Methods of Enzymatic Analysis. 1974. H. U. Bergmeyer, ed. Acad. Press, New York, 2nd Ed., pp 574-579).
Determination of GSH content in C6 glioma cultures: GSH levels were analysed by a micromethod, essentially as described by Vandeputte et al. (A microtiterplate assay for total glutathione and glutathione disulfide contents in cultured/isolated cells: performance study of a new miniaturised protocol. 1994. Cell Biol. Toxicol. 10:415-421), with a modification in the washing and homogenisation procedures. Cells (in 96-well plates) were washed with PBS, were homogenised in 50 μl 10 mM HCl containing 1.3% 5-sulfosalicylic acid, and the homogenate was centrifuged at 1200×g for 10 min at 4° C. Forty μl of the supernatant was transferred to a well of a 96-well plate and 200 μl reagent (1 mM 5,5'-dithiobis-(2-nitrobenzoic acid), 0.34 mM NADPH and 6.3 mM EDTA in 143 mM phosphate buffer pH 7.4) was added. After 5 min equilibration to room temperature the reaction was started by adding 40 μl glutathione reductase (8.5 IU/ml 143 mM phosphate buffer, 6.3 mM EDTA pH 7.4). NADPH oxidation was followed at 414 nm for 5 minutes with a Multiskan MCC/340 (Labsystems), and the change in absorbance (DA) per min was calculated. The glutathione content was deduced from a standard curve ranging from 0.2 to 2 nmol commercial GSH per test (DA/min plotted versus concentration).

C6 glioma cells [3] = assay: Protection of C6 glioma cells from glutathione depletion-mediated oxidative stress (toxicity, LDH assay); type: cell-based; settings: 10 mM glutamate; for IC50: 48 hr, read-out: Protection IC50 (mean ± SD, n = 3)
From the text: as §1, §2, §3

Structure (SMILES)	% vitE complementation ([1]; 10^-6 M) [%]	% vitE complementation ([1]; 10^-7 M) [%]	rescue of survival of vitE depleted cultures [1]	intracellular glutathione levels (C6 glioma cells [2])	GSH content (C6 glioma cells [2]) [pmol/well]	protection from cell death (C6 glioma cells [3])	IC50 (C6 glioma cells [3]) [nM]	IC50 (C6 glioma cells [3]; C6 glioma, 48 h) [nM]	rescue of primary neuronal cultures grown in VitE depleted medium ([1]; 10^-6 M)	EC50 ([1]; Rattus norvegicus, 5 dose responses, cytoplasmic LDH activity, read-out: mean EC50 ± SD for complementation of vitE) [nM]
O[C@H](CNC[C@@H](O)[C@H]1CCc2cc(F)ccc2O1)[C@@H]1CCc2cc(F)ccc2O1 (relative stereo) [nebivolol, (RSSS) and (SRRR) α,α'-iminobis(methylene)bis[6-fluoro-2-chroman-methanol]]	29 ± 28	29 ± 29	able to rescue survival of vitE depleted cultures to a certain extent	remained about half the levels seen in healthy control cells	301 ± 12	protected these cultures from cell death with high potency	9.1 ± 0.1	~9	–	–
Oc1ccc2c(c1)CCC(C(O)CNCC(O)C1CCc3ccccc3O1)O2 (stereo not drawn) [Compound A, [(RRSR)+(RRRS)+(SSSR) +(SSRS)]-α-[[[2-(chroman-2-yl)-2-hydroxy-ethyl]amino]methyl]-6-hydroxy-2-chromanmethanol ethanedioate (1:1)]	85 ± 21	27 ± 28	able to rescue survival of vitE depleted cultures to a certain extent	remained about half the levels seen in healthy control cells	301 ± 12	protected these cultures from cell death with high potency	8.6 ± 0.2	~9	complete rescue	126 ± 88
